Assay results taken from patent US20200038411A1, “METHODS OF TREATING TE[…]” (priority 2017, published 2020).
Entries after “also recorded” stand apart in the source; their conditions may differ.

Tests used:
[1] = men; upper range for testosterone administered as TU (lymphatic absorption); cited from earlier work
[2] = In vitro conversion of TU to T in whole blood at ambient temperature; format: in vitro ADME; settings: human blood, conditions typical of harvesting serum, no enzyme inhibitors
Experimental: Testosterone undecanoate is metabolized into testosterone. Its degradation in whole blood into testosterone has been studied in conditions typically used in clinical trials.
The in vitro conversion of TU to T in whole blood samples at ambient temperature was investigated by harvesting approximately 50 mL of blood from subjects prior to their oral TU administration. Aliquots of the pretreatment whole blood were added to 5 Plain sample collection tubes each tube previously spiked with 1 of 5 selected concentrations of TU (0, 30, 100, 300 and 1000 ng/mL). After gentle mixing, the tubes were stored at room temperature (about 23° C.) for 30 minutes prior to separating serum. […]
The frozen samples were stored at −20° C. until assay. All samples from a single participant were analyzed in the same assay run. Serum and plasma from the different tubes were measured using the methods developed for serum. Both T and DHT were measured in the same assay and both TU and […] were analyzed in the same assay developed for serum measurements. […]
When serum is harvested in the absence of enzyme inhibitors, the hydrolysis of TU and DHTU to T and DHT occurs during whole blood collection and processing to serum. […] Thus, testosterone must be analyzed in enzyme-inhibited plasma when TU is the administered medication.

[3] = Single 316 mg oral TU dose, T concentration-time profiles by sample collection tube type; format: in vivo, human; settings: 3 hours post dose
Experimental: Each study participant received a single oral TU dose containing 316 mg TU immediately prior to a standardized breakfast meal comprised of 800 to 1000 calories containing approximately 30 g of fat or about 25 to 30 percent fat. Subjects were instructed to consume the entire breakfast meal in no more than 30 minutes. Blood samples were collected 30 minutes prior to oral TU administration and at 0 (pre-dose), and 1, 2, 3, 4, 5, 6, 7, 8, 9, 10, 11 and 12 hrs post-dose. Because of the timed sample collections, all except for one subject entered the clinical research unit around 7 AM and spend the study period of 12 to 14 hours in the unit. […]
Blood samples collected in tubes were kept at room temperature for 30 minutes then centrifuged at 4° C. for 20 minutes at >1000 g. For each blood collection tube, serum was separated promptly after centrifugation and equal quantities of serum were transferred into 2 appropriately labelled polypropylene tubes. […]
Blood samples collected in tubes were immediately kept on ice for 30 minutes then centrifuged at 4° C. for 20 minutes at >1000 g. For each blood collection tube, serum was separated promptly after centrifugation and equal quantities of serum were transferred into 2 appropriately labelled polypropylene tubes. […]
The frozen samples were stored at −20° C. until assay. All samples from a single participant were analyzed in the same assay run. […]

[4] = Blood collected into different tubes spiked with TU, measured T (LA Biomed experiments); format: in vitro ADME, human
Source text: Additionally, non-specific esterases in blood may lead to hydrolysis of testosterone undecanoate (TU) (and its metabolite DHTU) during the blood collection procedure used to collect serum or plasma for evaluating T, dihydrotestosterone (DHT), TU and dihydrotestosterone undecanoate (DHTU) concentrations. If the extent of hydrolysis ex vivo is significant (e.g., at high concentrations of circulating TU or DHTU), then serum or plasma values of T, DHT, TU and DHTU may not accurately reflect the true in vivo concentrations of these compounds (e.g., T and DHT values may be artificially high due to ex vivo conversion of TU to T or DHTU to DHT). It has previously been shown that the collection of blood in sodium fluoride (NaF) containing tubes (so called ‘gray tops’ in a clinical setting) interfered with the measurement of serum T with a 20% decrease in the measured serum T levels (Wang, et al, 2008). […] In addition, the measured T concentrations in fluoride-containing tubes decreased by about 12 to 25%. Lachance et al published an article in 2015 that concluded T must be analyzed in enzyme-inhibited (i.e., NaF containing) plasma or serum when TU is administered to subjects in an oral form.

| SMILES | plasma half-life of testosterone [1] | degradation (conversion) of TU to testosterone in whole blood [2] | difference in mean T concentration between the Plain tube type and the other tube types [3] | mean assayed T concentration of NaF tube types, less than the Plain tube type [3] | increases in the measured T levels after spiking with TU ([4]; NaF+oxalate and NaF+EDTA tubes kept at 4° C. for 30 minutes, 0, 300 or 600 ng/ml TU) | increase in measured T concentrations (ex vivo conversion of TU to T) ([4]; addition of TU in excess of 500 ng/ml, standard 'red top' plain tubes without additives) |
| --- | --- | --- | --- | --- | --- | --- |
| C[C@]12CC[C@H]3[C@@H](CCC4=CC(=O)CC[C@@]43C)[C@@H]1CC[C@@H]2O [T, Testosterone] | 10 to 100 min | – | – | – | – | – |
| CCCCCCCCCCC(=O)O[C@H]1CC[C@H]2[C@@H]3CCC4=CC(=O)CC[C@]4(C)[C@H]3CC[C@]12C [TU, testosterone undecanoate] | – | degrades extensively; also recorded: extensive and continues over time | approximately 150 ng/dL | approximately 14% | minimal increases | 20 to 25% |
